Assay results from patent US9730944B2, “Antiviral activity of novel bicyclic heterocycles” (priority 2010, dated 2017).
Converted amounts (≈) assume the structure as drawn. Read-outs that look alike come from different tables or passages of the source.

What was measured:
HIV-1 strain IIIB = assay: Inhibition of replication of HIV-1 (IIIB strain) in MT-4 cells, MTT assay; assay type: cell-based; conditions: Human immunodeficiency virus 1, IIIB, MT4, 120 h; MT-4 cells, MTT assay, five days after infection, 50% protection from cytopathic effect; read-out: EC50 (μM) HIV-1 (IIIB)
HIV-2 strain (ROD) = assay: Inhibition of replication of HIV-2 (ROD strain) in MT-4 cells, MTT assay; assay type: cell-based; conditions: Human immunodeficiency virus 2, MT4, 120 h; MT-4 cells, MTT assay, five days after infection, 50% protection from cytopathic effect; read-out: EC50 (μM) HIV-2 (ROD)
hRV-9 = assay: Rhinovirus type 9 antiviral assay in Hela Rh cells, MTS readout; assay type: cell-based, Human rhinovirus; conditions: Human rhinovirus sp., HRV9, HeLa Rh, methodology of example 451; read-out: EC50 (μg/ml) hRV-9
poliovirus (PV type 2) = assay: microbe, parasite or virus in culture; assay type: cell-based; conditions: Enterovirus C, read-out: PV-2 EC50
[1] = Cytotoxicity in RD cells (enterovirus methodology); conditions: human
hRV-70 = assay: Rhinovirus type 70 antiviral assay in Hela Rh cells, MTS readout; assay type: cell-based, Human rhinovirus; conditions: Human rhinovirus sp., HRV70, HeLa Rh, methodology of example 451; read-out: EC50 (μg/ml) hRV-70
hRV-14 = assay: Rhinovirus type 14 antiviral assay in Hela Rh cells, MTS readout; assay type: cell-based, Human rhinovirus; conditions: Rhinovirus B, HRV14, HeLa Rh, methodology of example 451; read-out: EC50 (μg/ml) hRV-14
hRV-89 = assay: Rhinovirus type 89 antiviral assay in Hela Rh cells, MTS readout; assay type: cell-based, Human rhinovirus; conditions: Rhinovirus A, HRV89, HeLa Rh; methodology of example 451; read-out: EC50 (μg/ml) hRV-89
hRV-63 = assay: Rhinovirus type 63 antiviral assay in Hela Rh cells, MTS readout; assay type: cell-based, Human rhinovirus; conditions: Human rhinovirus sp., HRV63, HeLa Rh, methodology of example 451; read-out: EC50 (μg/ml) hRV-63
hRV-42 = assay: Rhinovirus type 42 antiviral assay in Hela Rh cells, MTS readout; assay type: cell-based, Human rhinovirus; conditions: Human rhinovirus sp., HRV42, HeLa Rh, methodology of example 451; read-out: EC50 (μg/ml) hRV-42
in vitro [2] = conditions: African green monkey
hRV-45 = assay: Rhinovirus type 45 antiviral assay in Hela Rh cells, MTS readout; assay type: cell-based, Human rhinovirus; conditions: Human rhinovirus sp., HRV45, HeLa Rh, methodology of example 451; read-out: EC50 (μg/ml) hRV-45
in vitro [3] = conditions: human, PV CC50
hRV-15 = assay: Rhinovirus type 15 antiviral assay in Hela Rh cells, MTS readout; assay type: cell-based, Human rhinovirus; conditions: Human rhinovirus sp., HRV15, HeLa Rh, methodology of example 451; read-out: EC50 (μg/ml) hRV-15
in vitro [4] = conditions: African green monkey, PV CC50
coxsackie virus (CVA9) = assay: Coxsackievirus (CVA9) antiviral assay in BGM cells; assay type: cell-based; conditions: Enterovirus B
[5] = Cytotoxicity reported with the coxsackievirus (CVA9) assay; conditions: African green monkey
hRV-39 = assay: Rhinovirus type 39 antiviral assay in Hela Rh cells, MTS readout; assay type: cell-based, Human rhinovirus; conditions: Human rhinovirus sp., HRV39, HeLa Rh, methodology of example 451; read-out: EC50 (μg/ml) hRV-39
in vitro [6] = conditions: human
hRV-72 = assay: Rhinovirus type 72 antiviral assay in Hela Rh cells, MTS readout; assay type: cell-based, Human rhinovirus; conditions: Human rhinovirus sp., HRV72, HeLa Rh, methodology of example 451; read-out: EC50 (μg/ml) hRV-72
hRV-41 = assay: Rhinovirus type 41 antiviral assay in Hela Rh cells, MTS readout; assay type: cell-based, Human rhinovirus; conditions: Human rhinovirus sp., HRV41, HeLa Rh, methodology of example 451; read-out: EC50 (μg/ml) hRV-41
poliovirus (PV type 3) = assay: microbe, parasite or virus in culture; assay type: cell-based; conditions: Enterovirus C, read-out: PV-3 EC50
poliovirus (PV type 1) = assay: microbe, parasite or virus in culture; assay type: cell-based; conditions: Enterovirus C, read-out: PV-1 EC50
[7] = test system: Enteric Cytopathic Human Orphan virus (ECHO11); assay: organism not typed; assay type: cell-based; conditions: BGM, read-out: EC50 (ECHO virus)
[8] = Cytostatic/cytotoxic effect in Hela Rh cells (rhinovirus methodology, MTS); conditions: human, CC50 (μg/ml), rhinovirus methodology of example 451
hRV-29 = assay: Rhinovirus type 29 antiviral assay in Hela Rh cells, MTS readout; assay type: cell-based; conditions: Human rhinovirus sp., HRV29, HeLa Rh, methodology of example 451; read-out: EC50 (μg/ml) hRV-29
hRV-2 = assay: Rhinovirus type 2 antiviral assay in Hela Rh cells, MTS readout; assay type: cell-based, Human rhinovirus; conditions: Rhinovirus A, HRV2, HeLa Rh, methodology of example 451; read-out: EC50 (μg/ml) hRV-2
hRV-86 = assay: Rhinovirus type 86 antiviral assay in Hela Rh cells, MTS readout; assay type: cell-based, Human rhinovirus; conditions: Human rhinovirus sp., HRV86, HeLa Rh, methodology of example 451; read-out: EC50 (μg/ml) hRV-86
enterovirus (EV71) = assay: Enterovirus (EV71) antiviral assay in RD cells; assay type: cell-based
hRV-59 = assay: Rhinovirus type 59 antiviral assay in Hela Rh cells, MTS readout; assay type: cell-based; conditions: Human rhinovirus sp., HRV59, HeLa Rh; methodology of example 451; read-out: EC50 (μg/ml) hRV-59
hRV-85 = assay: Rhinovirus type 85 antiviral assay in Hela Rh cells, MTS readout; assay type: cell-based, Human rhinovirus; conditions: Human rhinovirus sp., HRV85, HeLa Rh, methodology of example 451; read-out: EC50 (μg/ml) hRV-85

Nc1nc(N2CCN(C(=O)COc3ccc(Cl)cc3)CC2)c2nc(-c3ccc(F)cc3)sc2n1 [Example 45, 1-(4-(5-amino-2-(4-fluorophenyl)thiazolo[5,4-d]pyrimidin-7-yl)piperazin-1-yl)-2-(4-chlorophenoxy)ethanone]
EC50 (HIV-1 strain IIIB): 0.73 µM
EC50 (HIV-2 strain (ROD)): 0.45 µM
EC50 (hRV-9): 0.0082 µg/mL (≈ 0.0164 µM)
EC50 (poliovirus (PV type 2); HeLa): < 0.023 µg/mL
EC50 (poliovirus (PV type 2); Vero): < 0.023 µg/mL
CC50 [1]: 27.8 µg/mL (≈ 55.7 µM)
EC50 (hRV-70): 0.0718 µg/mL (≈ 0.144 µM)
EC50 (hRV-14): 0.0701 µg/mL (≈ 0.14 µM)
EC50 (hRV-89): 0.021 µg/mL (≈ 0.0421 µM)
EC50 (hRV-63): 0.018 µg/mL (≈ 0.0361 µM)
EC50 (hRV-42): 0.0142 µg/mL (≈ 0.0285 µM)
CC50 (in vitro [2]): 28.7 µg/mL (≈ 57.5 µM)
EC50 (hRV-45): 0.198 µg/mL (≈ 0.397 µM)
CC50 (in vitro [3]): > 50 µg/mL
EC50 (hRV-15): 0.017 µg/mL (≈ 0.0341 µM)
CC50 (in vitro [4]): > 150 µg/mL
EC50 (coxsackie virus (CVA9)): 0.29 µg/mL (≈ 0.581 µM)
CC50 [5]: 25.7 µg/mL (≈ 51.5 µM)
EC50 (hRV-39): 0.012 µg/mL (≈ 0.024 µM)
CC50 (in vitro [6]): 149000 nM
EC50 (hRV-72): 0.0736 µg/mL (≈ 0.148 µM)
EC50 (hRV-41): 0.0129 µg/mL (≈ 0.0259 µM)
EC50 (poliovirus (PV type 3); HeLa): < 0.023 µg/mL
EC50 (poliovirus (PV type 3); Vero): < 0.023 µg/mL
EC50 (poliovirus (PV type 1); HeLa): < 0.023 µg/mL
EC50 (poliovirus (PV type 1); Vero): < 0.023 µg/mL
EC50 [7]: 0.076 µg/mL (≈ 0.152 µM)
CC50 [8]: 21.7 µg/mL (≈ 43.5 µM)
EC50 (hRV-29): 0.011 µg/mL (≈ 0.022 µM)
EC50 (hRV-2): 0.0095 µg/mL (≈ 0.019 µM)
EC50 (hRV-86): 0.047 µg/mL (≈ 0.0942 µM)
EC50 (enterovirus (EV71)): 0.0695 µg/mL (≈ 0.139 µM)
EC50 (hRV-59): 0.02 µg/mL (≈ 0.0401 µM)
EC50 (hRV-85): 0.0295 µg/mL (≈ 0.0591 µM)
